# Source: US20040106626A1, “6-Membered unsaturated heterocyclic compounds useful for selective inhibition of the coagulation cascade” (Pharmacia Corporation, priority 2001, published 2004)
# Structures can show the parent of a compound that is named as a salt.
# Key:
# Type in all cases: biochemical
# [1] = molecular target: T1, recombinant soluble tissue factor and recombinant human factor VIIa (TF-VIIa) (Homo sapiens, UniProt P08709); assay: TF-VIIa assay (chromogenic substrate hydrolysis); details: reported only as less than or greater than 0.1 uM
# T1 construct: conversion of coagulation factor VII to VIIa by factor Xa; purchased American Diagnostica, Greenwich CT; host or cells: soluble TF made in house in E. coli
# In short: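 Chromogenic read at OD405, compared with control for percent inhibition. Substrate N-methylsulfonyl-D-phe-gly-arg-p-nitroaniline at 0.4 mM is cleaved by recombinant human VIIa (2 nM) complexed with soluble TF (100 nM). Buffer: pH 8.0 Tris-HCl 50 mM, CaCl2 5 mM, NaCl 100 mM, BSA 0.1%.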
# Human factor Xa = molecular target: T2, Human factor Xa (Homo sapiens, UniProt P00742); assay: Xa assay (chromogenic substrate S-2765); details: reported only as less than or greater than 30 uM; read-out: Factor Xa (II) IC50
# T2 construct: purchased Enzyme Research Laboratories, South Bend Ind
# In short: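 Chromogenic readout: S-2765 hydrolysis (0.15 mM) by 0.3 nM human FXa was monitored at 405 nm after 60 min at room temperature, with a time-zero background read. Buffer: 50 mM Tris-HCl, pH 8.0, 100 mM NaCl, 0.1% BSA. Inhibition is relative to buffer-only controls.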
# Human thrombin = molecular target: T3, Human thrombin (Homo sapiens, UniProt P00734); assay: Thrombin assay (chromogenic substrate); details: reported only as less than or greater than 30 uM; read-out: Thrombin (II) IC50
# T3 construct: converts prothrombin (II) to thrombin (IIa); purchased Calbiochem, La Jolla, Calif
# In short: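 Percent inhibition derived by comparing OD405 nm of compound-treated and control samples. Thrombin cleavage of a p-nitroanilide chromogenic substrate provides the signal.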
# [2] = system: Normal human pooled plasma; assay: Prothrombin time (PT) clotting assay; details: concentration at which prothrombin time is prolonged by 2x normal, reported as less than or greater than 50 uM
# In short: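 Normal human pooled plasma incubated with 100 uM compound or saline, then thromboplastin (human tissue factor) added and clotting time recorded in a coagulation machine. Compounds exceeding 3× normal PT (11.0 s) are titrated to find the concentration doubling PT.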
# T2 sequence (P00742 235-488 limits assumed): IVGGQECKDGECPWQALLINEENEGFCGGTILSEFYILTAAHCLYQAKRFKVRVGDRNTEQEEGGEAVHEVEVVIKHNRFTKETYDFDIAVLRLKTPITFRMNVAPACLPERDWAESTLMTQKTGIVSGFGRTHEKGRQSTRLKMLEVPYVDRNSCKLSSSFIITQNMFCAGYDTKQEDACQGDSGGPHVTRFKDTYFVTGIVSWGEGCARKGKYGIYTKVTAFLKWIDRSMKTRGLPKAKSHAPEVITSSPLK
# T2 sequence (P00742 41-179 limits assumed): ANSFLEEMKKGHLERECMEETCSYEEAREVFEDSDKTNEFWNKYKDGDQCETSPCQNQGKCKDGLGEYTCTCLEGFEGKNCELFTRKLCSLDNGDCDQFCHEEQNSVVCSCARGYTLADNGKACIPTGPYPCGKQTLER
# T1 sequence (P08709 213-466 limits assumed): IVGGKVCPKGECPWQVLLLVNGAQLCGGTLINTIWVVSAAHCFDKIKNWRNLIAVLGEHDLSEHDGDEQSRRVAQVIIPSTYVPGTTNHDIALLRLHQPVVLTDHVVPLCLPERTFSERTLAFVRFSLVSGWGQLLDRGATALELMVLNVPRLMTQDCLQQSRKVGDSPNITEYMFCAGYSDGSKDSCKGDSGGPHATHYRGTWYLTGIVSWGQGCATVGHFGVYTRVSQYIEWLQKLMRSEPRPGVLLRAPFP
# T1 sequence (P08709 61-212 limits assumed): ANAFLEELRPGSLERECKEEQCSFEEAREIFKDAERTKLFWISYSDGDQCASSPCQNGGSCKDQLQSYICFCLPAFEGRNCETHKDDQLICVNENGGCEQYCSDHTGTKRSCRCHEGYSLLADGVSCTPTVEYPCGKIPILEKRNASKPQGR
# T1 sequence (P13726 33-251 partner limits assumed): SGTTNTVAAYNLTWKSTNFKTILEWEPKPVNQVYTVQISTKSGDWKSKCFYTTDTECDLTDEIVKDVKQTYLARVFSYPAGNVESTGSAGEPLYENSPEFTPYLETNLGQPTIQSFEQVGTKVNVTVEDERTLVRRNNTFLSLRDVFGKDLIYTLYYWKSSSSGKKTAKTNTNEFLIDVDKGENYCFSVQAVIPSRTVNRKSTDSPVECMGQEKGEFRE
Compound,IC50 [1] [µM],IC50 (Human factor Xa) [µM],IC50 (Human thrombin) [µM],PT (Prothrombin time) 2xPT [2] [µM]
CC[C@H](C)NC(=O)c1cc(N)cc(-c2cnc(NC(C)C)c(=O)n2CC(=O)NCc2c(F)c(O)c(C(=N)N)c(F)c2F)c1.Cl.Cl [Example 164],< 0.1,> 30,> 30,<50.0
CC(C)Nc1ncc(-c2cc(N)cc(OCC3CC3)c2)n(CC(=O)NCc2ccc(C(=N)N)cc2)c1=O.O=C(O)C(F)(F)F.O=C(O)C(F)(F)F [Example 223],< 0.1,> 30,> 30,<50.0
"CC[C@@H](C)NC(=O)c1cc(N)cc(-c2cnc(NC(C)C)c(=O)n2CC(=O)NCc2ccc(C(=N)N)cc2OC)c1.O=C(O)C(F)(F)F.O=C(O)C(F)(F)F [Example 182, 3-amino-5-[1-[2-({4-[amino(imino)methyl]-2-methoxybenzyl}amino)-2-oxoethyl]-5-(isopropylamino)-6-oxo-1,6-dihydropyrazin-2-yl]-N-[(1R)-1-methylpropyl]benzamide]",< 0.1,> 30,< 30,<50.0
"CC(C)C[S+]([O-])c1cc(N)cc(-c2cnc(NC(C)C)c(=O)n2CC(=O)NCc2ccc(C(=N)N)cc2)c1 (stereo not drawn) [Example 73, N-{4-[amino(imino)methyl]benzyl}-2-[6-[3-amino-5-(isobutylsulfinyl)phenyl]-3-(isopropylamino)-2-oxopyrazin-1 (2H)-yl]acetamide]",< 0.1,> 30,> 30,<50.0
CC(C)Nc1ncc(-c2cc(N)cc(S(=O)(=O)CC3CCCCC3)c2)n(CC(=O)NCc2ccc(C(=N)N)cc2)c1=O.O=C(O)C(F)(F)F.O=C(O)C(F)(F)F [Example 233],< 0.1,> 30,> 30,<50.0
CC(C)Nc1ncc(-c2cc(N)cc(NS(=O)(=O)CCc3ccccc3)c2)n(CC(=O)NCc2ccc(C(=N)N)cc2)c1=O [Example 95],< 0.1,> 30,> 30,<50.0
CC(C)Nc1ncc(-c2cc(N)cc(C(=O)O)c2)n(CC(=O)NCc2ccc(C(=N)N)cc2)c1=O.O=C(O)C(F)(F)F [Example 118],< 0.1,> 30,> 30,<50.0
CCC(CC)S(=O)(=O)c1cc(N)cc(-c2cnc(NC(C)C)c(=O)n2CC(=O)NCc2ccc(C(=N)N)cc2)c1.O=C(O)C(F)(F)F.O=C(O)C(F)(F)F [Example 231],< 0.1,> 30,> 30,<50.0
CCCNc1ncc(-c2cc(N)cc(C(=O)N[C@@H](C)CC)c2)n(CC(=O)NCc2ccc(C(=N)N)cc2)c1=O.O=C(O)C(F)(F)F.O=C(O)C(F)(F)F [Example 192],< 0.1,> 30,< 30,<50.0
"CC(C)Nc1ncc(-c2cc(N)cc(O)c2)n(CC(=O)NCc2ccc(C(=N)N)c(O)c2)c1=O.O=C(O)C(F)(F)F [Example 181, 2-[6-(3-amino-5-hydroxyphenyl)-3-(isopropylamino)-2-oxopyrazin-1 (2H)-yl]-N-{4-[amino(imino)methyl]-3-hydroxybenzyl}acetamide]",> 0.1,> 30,> 30,>50.0
CC(C)Nc1ncc(-c2cc(N)cc(C(=O)N[C@@H](C(=O)O)c3ccccc3)c2)n(CC(=O)NCc2ccc(C(=N)N)cc2)c1=O [Example 83],< 0.1,> 30,> 30,<50.0
"CCOC(=O)c1cc(N)cc(-c2cnc(NC3CC3)c(=O)n2CC(=O)NCc2ccc(C(=N)N)cc2)c1.O=C(O)C(F)(F)F [Example 207, Ethyl 3-amino-5-[1-[2-({4-[amino(imino)methyl]benzyl}amino)-2-oxoethyl]-5-(cyclopropylamino)-6-oxo-1,6-dihydropyrazin-2-yl]benzoate]",< 0.1,> 30,> 30,<50.0
CC(C)Nc1ncc(-c2cc(N)cc(OC(=O)C3CC3)c2)n(CC(=O)NCc2ccc(C(=N)N)cc2)c1=O.O=C(O)C(F)(F)F.O=C(O)C(F)(F)F [Example 238],< 0.1,> 30,> 30,<50.0
CCC(C)CS(=O)(=O)c1cc(N)cc(-c2cnc(NC(C)C)c(=O)n2CC(=O)NCc2ccc(C(=N)N)cc2)c1.O=C(O)C(F)(F)F.O=C(O)C(F)(F)F (stereo not drawn) [Example 237],< 0.1,> 30,> 30,<50.0
"CC(C)Nc1ncc(-c2cc(N)cc(S(=O)(=O)O)c2)n(CC(=O)NCc2ccc(C(=N)N)cc2)c1=O [Example 66, 3-Amino-5-[1-[2-({4-[amino(imino)methyl]benzyl}amino)-2-oxoethyl]-5-(isopropylamino)-6-oxo-1,6-dihydropyrazin-2-yl]benzenesulfonic Acid]",< 0.1,> 30,> 30,<50.0
CC(C)Nc1ncc(-c2cc(N)cc(C(=O)N[C@H](C)C3CCCCC3)c2)n(CC(=O)NCc2ccc(C(=N)N)cc2)c1=O.O=C(O)C(F)(F)F [Example 81],< 0.1,> 30,< 30,<50.0
CC(C)Nc1ncc(-c2cc(N)cc(NC(=O)Cc3ccccc3)c2)n(CC(=O)NCc2ccc(C(=N)N)cc2)c1=O [Example 99],< 0.1,> 30,> 30,<50.0
CC[C@H](C)NC(=O)c1cc(N)cc(-c2cnc(N[C@@H](C)C(C)C)c(=O)n2CC(=O)NCc2ccc(C(=N)N)cc2)c1.O=C(O)C(F)(F)F.O=C(O)C(F)(F)F [Example 190],< 0.1,> 30,< 30,<50.0

# More lines, main results first:
IC50 [1] [µM],IC50 (Human factor Xa) [µM],IC50 (Human thrombin) [µM],Compound,PT (Prothrombin time) 2xPT [2] [µM]
< 0.1,> 30,> 30,CC(C)Nc1ncc(-c2cc(N)cc(NC(=O)CCc3ccccc3)c2)n(CC(=O)NCc2ccc(C(=N)N)cc2)c1=O [Example 106],<50.0
< 0.1,> 30,> 30,CC(C)Nc1ncc(-c2cc(N)cc(NS(=O)(=O)c3ccc(F)cc3)c2)n(CC(=O)NCc2ccc(C(=N)N)cc2)c1=O [Example 93],<50.0
< 0.1,> 30,> 30,"CC(C)CS(=O)(=O)c1cc(N)cc(-c2cnc(NC(C)C)c(=O)n2CC(=O)NCc2ccc(C(=N)N)cc2)c1 [Example 74, N-{4-[amino(imino)methyl]benzyl}-2-[6-[3-amino-5-(isobutylsulfonyl)phenyl]-3-(isopropylamino)-2-oxopyrazin-1 (2H)-yl]acetamide]",<50.0
> 0.1,> 30,> 30,CC[C@H](C)NC(=O)c1cc(N)cc(-c2cnc(NC(C)C)c(=O)n2CC(=O)NCc2c(O)cc(C(=N)N)cc2O)c1 [Example 193],<50.0
< 0.1,> 30,> 30,"COc1cc(N)cc(-c2cnc(NC(C)C)c(=O)n2CC(=O)NCc2ccc(C(=N)N)cc2)c1 [Example 53, N-{4-[Amino(imino)methyl]benzyl}-2-[6-(3-amino-5-methoxyphenyl)-3-(isopropylamino)-2-oxopyrazin-1 (2H)-yl]acetamide]",<50.0
> 0.1,> 30,> 30,CC(C)Nc1ncc(-c2cc(N)cc(C(F)(F)F)c2)n(CC(=O)NCc2c(F)c(O)c(C(=N)N)c(F)c2F)c1=O [Example 65],>50.0
< 0.1,> 30,> 30,"CC(C)Nc1ncc(-c2cc(N)cc(CCCc3ccccc3)c2)n(CC(=O)NCc2ccc(C(=N)N)cc2)c1=O [Example 76, N-{4-[amino(imino)methyl]benzyl}-2-[6-[3-amino-5-(3-phenylpropyl)phenyl]-3-(isopropylamino)-2-oxopyrazin-1 (2H)-yl]acetamide]",<50.0
< 0.1,> 30,> 30,CC(C)Nc1ncc(-c2cc(N)cc(O)c2)n(CC(=O)NCc2ccc(C(=N)N)cc2)c1=O [Example 54],<50.0
< 0.1,> 30,> 30,"CC(C)Nc1ncc(-c2cc(N)cc(NCCc3ccccc3)c2)n(CC(=O)NCc2ccc(C(=N)N)cc2)c1=O [Example 110, N-{4-[amino(imino)methyl]benzyl}-2-[6-{3-amino-5-[(2-phenylethyl)amino]phenyl}-3-(isopropylamino)-2-oxopyrazin-1 (2H)-yl]acetamide trifluoroacetate]",<50.0
